Read-outs that look alike come from different tables or passages of the source.
Key:
OATP1B1 = target: T1, OATP1B1 (Homo sapiens, UniProt Q9Y6L6); assay: Irreversible inhibition (reversibility) assay of OATP1B1; assay type: cell-based; conditions: for reversibility of OATP1B1 inhibition: wash-out after 15 min preincubation
T1 construct: expressed in transfected cells; host or cells: HEK293 (recombinant baculovirus-mediated transduction)
T1 sequence (Q9Y6L6 1-691): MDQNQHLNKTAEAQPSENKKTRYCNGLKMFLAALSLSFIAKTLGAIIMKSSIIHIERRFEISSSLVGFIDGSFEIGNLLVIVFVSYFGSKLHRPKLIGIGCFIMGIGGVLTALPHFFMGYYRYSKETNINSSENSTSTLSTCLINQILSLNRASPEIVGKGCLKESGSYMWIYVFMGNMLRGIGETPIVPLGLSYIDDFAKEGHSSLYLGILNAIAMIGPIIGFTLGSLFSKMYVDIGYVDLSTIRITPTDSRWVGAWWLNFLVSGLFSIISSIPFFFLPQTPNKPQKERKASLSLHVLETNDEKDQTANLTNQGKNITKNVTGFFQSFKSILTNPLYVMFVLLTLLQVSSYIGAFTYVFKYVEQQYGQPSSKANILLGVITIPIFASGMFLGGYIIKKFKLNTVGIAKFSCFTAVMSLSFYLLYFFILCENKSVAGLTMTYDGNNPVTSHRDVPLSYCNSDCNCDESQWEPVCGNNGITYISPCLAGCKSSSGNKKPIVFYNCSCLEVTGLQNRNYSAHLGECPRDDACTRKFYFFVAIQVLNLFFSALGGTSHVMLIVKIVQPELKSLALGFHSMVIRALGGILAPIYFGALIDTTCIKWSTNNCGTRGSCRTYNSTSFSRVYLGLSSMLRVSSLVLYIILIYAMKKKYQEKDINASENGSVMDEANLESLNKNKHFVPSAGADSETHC
Procedure: were removed and 300 µl of warm TP-buffer was added to each well and incubated for 5 min.
The washing was repeated twice , after which the transport assays were conducted in the presence of 1 µM 2′,7′ -dichlorofluorescein for 5 min. The wells that were pre -incubated with […]
incubated with the vehicle contained three different inhibitor concentrations. After the transport

OATP1B3 = target: T2, OATP1B3 (Homo sapiens, UniProt Q9NPD5); assay: OATP1B3 inhibition with fluorescent substrate 8-Fluo-cAMP in HEK293 cells; assay type: cell-based; conditions: 2.5 µM 8-Fluo-cAMP, 5 min, 30 min preincubation
T2 construct: expressed in transfected cells; host or cells: HEK293 (recombinant baculovirus-mediated transduction)
T2 sequence (Q9NPD5 1-702): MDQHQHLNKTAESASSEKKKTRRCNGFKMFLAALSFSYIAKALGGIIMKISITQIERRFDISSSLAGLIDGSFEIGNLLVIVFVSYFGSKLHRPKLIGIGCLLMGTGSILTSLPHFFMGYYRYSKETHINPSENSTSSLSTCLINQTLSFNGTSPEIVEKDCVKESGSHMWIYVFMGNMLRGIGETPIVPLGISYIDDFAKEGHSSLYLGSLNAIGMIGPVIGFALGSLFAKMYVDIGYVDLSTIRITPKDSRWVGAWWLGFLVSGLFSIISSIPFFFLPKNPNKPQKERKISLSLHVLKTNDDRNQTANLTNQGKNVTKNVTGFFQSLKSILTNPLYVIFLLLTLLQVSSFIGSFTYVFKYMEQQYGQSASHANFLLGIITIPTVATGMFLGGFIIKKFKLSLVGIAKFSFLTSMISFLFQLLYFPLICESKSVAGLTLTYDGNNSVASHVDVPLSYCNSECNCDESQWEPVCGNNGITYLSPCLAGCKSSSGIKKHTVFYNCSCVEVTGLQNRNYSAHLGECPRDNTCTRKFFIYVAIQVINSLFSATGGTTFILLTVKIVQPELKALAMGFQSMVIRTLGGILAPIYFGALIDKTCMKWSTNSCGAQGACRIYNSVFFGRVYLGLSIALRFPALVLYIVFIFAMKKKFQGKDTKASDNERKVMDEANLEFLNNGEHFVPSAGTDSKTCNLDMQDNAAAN
Procedure: 8- (2- [Fluoresceinyl]aminoethylthio)adenosine- 3', 5'- cyclic monophosphate (8-Fluo-cAMP) was acquired from Biolog Life Science Institute (Bremen, Germany), 4′,5′-dibromofluorescein was acquired from Sigma-Aldrich (St. Louis, MO, USA) and 2′,7′-dichlorofluorescein was acquired from Santa Cruz Biotechnology (Dallas, TX, USA).
Inhibition studies with fluorescent substrates in OATP transduced HEK293 cells The concentrations of fluorescent probe substrates were 1 µM 2′,7′-dichlorofluorescein for OATP1B1, 2.5 µM 8-Fluo-cAMP for OATP1B3 and 1 µM 4′,5′-dibromofluorescein for OATP2B1, and these concentrations were selected to be within or below of previously reported […]
reported linear ranges of transport for these substrate-transporter combinations.1,2,4 8-Fluo-cAMP was dissolved in ultrapure water, while dimethyl sulfoxide (DMSO) was used for all other compounds. […] For the quantification of fluorescent substrates, cells were lysed with 120 µl of lysis solution (1% Triton X-100, 5 mM EDTA, 150 mM sodium chloride and 150 mM TRIC-hydrochloride and adjusted to pH 8 with sodium hydroxide) for 30 min at 300 RPM shaking before transferring 80 µl of samples to a transparent 96-well plate containing 20 µl of 0.5 M sodium hydroxide. […] The plates were measured with a fluorescent plate reader (Varioskan LUX from ThermoFisher Scientific). […]

MRP3 = tested on: T3, MRP3; assay: Efflux transport assay in MRP3 HEK293 membrane vesicles; assay type: biochemical, human; conditions: 5 and 50 µM, 10 min
T3 construct: expressed in transfected cells; host or cells: HEK293 cells

[1] = 1 µM 2′,7′-dichlorofluorescein, 5 min, read-out: IC50 OATP1B1, inhibitor present only during the transport assay
[2] = cells washed three times before the transport assay, read-out: IC50 OATP1B1, inhibitor present only during the preincubation

Structure (SMILES): Cc1onc(-c2c(Cl)cccc2Cl)c1C(=O)N[C@@H]1C(=O)N2[C@@H]1SC(C)(C)[C@@H]2C(=O)O [Dicloxacillin]
- IC50 (OATP1B1; [1]): 4.82 µM
- IC50 (OATP1B1; [2]): 238 µM
- reversibility of OATP1B1 inhibition (OATP1B1): reversible
- IC50 (OATP1B3): 4.28 µM
- transport by MRP3 (MRP3): did not transport

Structure (SMILES): Cc1onc(-c2c(F)cccc2Cl)c1C(=O)N[C@@H]1C(=O)N2[C@@H]1SC(C)(C)[C@@H]2C(=O)O [Flucloxacillin]
- IC50 (OATP1B1; [1]): 15.6 µM
- IC50 (OATP1B1; [2]): 455 µM
- reversibility of OATP1B1 inhibition (OATP1B1): reversible
- IC50 (OATP1B3): 46.3 µM
- transport by MRP3 (MRP3): did not transport

From article PMC12865225 (Clinical and Translational Science, 2026)
